Literature values, collected in patent US9511020B2, “Controlled release corticosteroid compositions and methods for the treatment of otic disorders” (priority 2008, dated 2016).

Key:
[1] = relative potency
[2] = for Glucocorticoid potency: relative potency

SMILES	Mineralocorticoid potency [1]	Glucocorticoid potency [2]	potency relative to endogenous cortisol ([2]; times the potency of endogenous cortisol)
C[C@]12CCC(=O)C=C1CC[C@@H]1[C@@H]2[C@@H](O)C[C@]2(C=O)[C@@H](C(=O)CO)CC[C@@H]12 [aldosterone]	1.0	0.07	
C[C@]12CCC(=O)C=C1CC[C@@H]1[C@@H]2[C@@H](O)C[C@@]2(C)[C@H]1CC[C@]2(O)C(=O)CO [cortisol]	0.054	1	
C[C@]12C=CC(=O)C=C1CC[C@@H]1[C@@H]2[C@@H](O)C[C@@]2(C)[C@H]1CC[C@]2(O)C(=O)CO [prednisolone]	0.013	1.7	4-5 times
C=C1C[C@H]2[C@@H]3CCC4=CC(=O)C=C[C@]4(C)[C@H]3[C@@H](O)C[C@]2(C)[C@@]1(O)C(=O)CO [prednylidene]	0.0011	182	
C[C@]12C=CC(=O)C=C1CC[C@H]1[C@@H]3C[C@@H](O)[C@](O)(C(=O)CO)[C@@]3(C)C[C@H](O)[C@@]12F [triamcinolone]	0.0002	0.35	
